Reference: patent publication US9381229B2, “Pharmaceutical composition for use in the treatment of dysfunction associated with aging” (INSERM (INSTITUT NATIONAL DE LA SANTE ET DE LA RECHERCHE …, priority 2011, dated 2016)
Read-outs that look alike come from different tables or passages of the source.

Key:
Myf5 = settings: for Myf5 marker quantification (mRNA), Mean: apelin 0.1 μmole/kg/day ip, 28 days
Protocol: (§1) Mice were handled in accordance with the principles and guidelines established by the National Institute of Medical Research (INSERM). C57B16/J wild type mice were obtained from Harlan (Gannat, France). CMV-KO apelin mice were obtained from Genoway (Lyon, France). Mice were housed conventionally in a constant temperature (20-22° C.) and humidity (50-60%) animal room, with a 12/12 h light/dark cycle (lights on at 8:00 am) and free access to food and water. The mice were fed a chow diet from weaning until 10-week-old and then either maintained on a chow diet (Research Diet, NJ).
(§2) Apelin treatment was processing to mice from 31 weeks old to 35 weeks old. Mice were daily injected with intraperitoneal injection of apelin (0.1 μmole/kg/day) as previously described (Higuchi et al 2005; Yue et al 2010) for 28 days. Age-matched control mice were PBS-injected during the same period. All mice were sacrificed 24 h after the last apelin ip injection in a fed state.
(§3) Total RNAs ([…]) were isolated from muscles using GeneJET RNA Purification Kit (Fermentas, USA). Total RNAs were reverse transcribed using random hexamers and Superscript 11 reverse transcriptase (Invitrogen, UK). Real time PCR was performed as previously described (Boucher et al. 2005).

MyoD = settings: for MyoD marker quantification (mRNA), Mean: apelin 0.1 μmole/kg/day ip, 28 days
Protocol: as §1, §2, §3

Myostatin = settings: for Myostatin marker quantification (mRNA), Mean: apelin 0.1 μmole/kg/day ip, 28 days
Protocol: as §1, §2, §3

myogenin = settings: for myogenin marker quantification (mRNA), Mean: apelin 0.1 μmole/kg/day ip, 28 days
Protocol: as §1, §2, §3

[1] = Plasma apelin concentration after ip bolus of apelin (Example 1); format: in vivo, mice; settings: bolus of ip apelin 0.1 μmole/kg; 10 min after injection
[2] = Plasma apelin concentration in HFD mice (Example 3); format: in vivo
Protocol: Plasma fatty acids (FM) and TGs measured by colorimetric technique with the Wako NEFA kit (Wako Chemicals) and the PAP 150 Kit (bioMerieux), respectively, as well as plasma leptin, adiponectin (Quantikine; R&D Systems), and apelin (Phoenix Pharmaceuticals, Inc.), were determined in the fed state at the end of the treatment. Insulinemia (Mercodia, Uppsala, Sweden) and glycemia measured with a glucometer (Accu-check; Roche Diagnostics) were determined in the fasted state on blood from the tail vein.

AMPK [3] = settings: muscle of HFD AMPK-DN apelin-treated mice
Protocol: (§4) Mice were handled in accordance with the principles and guidelines established by INSERM. C57B16/J wild-type (WT) mice were obtained from Harlah (Gannat, France). […] Moris J. Birnbaum (Howard Hughes Medical Institute, University of Pennsylvania, Philadelphia, Pa.). Apelin-deficient (apelin−/−) mice were generated as described previously (10) and backcrossed to C57B16/J mice >10 times. Mice were housed conventionally in a constant temperature (20-22° C.) and humidity (50-60%) animal room, with a 12/12 h light/dark cycle (lights on at 7:00 a.m.) and free access to food and water. The C57B16/J and AMPK-DN mice were fed an ND from weaning until aged 10 weeks and then either maintained on ND (control group) or fed an HFD containing 20% protein, 35% carbohydrate, and 45% fat (Research Diets, New Brunswick, N.J.). Apelin treatment began after the onset of insulin resistance in males aged 23 weeks. Mice were injected daily with apelin-13 (Phoenix Biotech) at […] i.p. as previously described (7) for 28 days. Age-matched control mice were PBS injected during the same period. Standard mice were also treated with a specific APJ receptor antagonist (F13A) (Phoenix Biotech) (11) at 0.2 μmol/kg/day during 28 days or with the combination of apelin and F13A. All mice were killed 24 h after the last apelin injection in a fed state.

Malonyl-CoA = settings: soleus muscle of insulin-resistant mice
Protocol: as §4

citrate synthase = settings: muscle homogenates; HFD mice; n=7-9; P<0.001 vs control
Protocol: as §4

[4] = test system: mitochondria of soleus muscle; settings: HFD mice
Protocol: as §4

[5] = test system: muscle of insulin-resistant mice; settings: HFD mice; chronic apelin treatment 28 days
Protocol: as §4

soleus muscle = test system: soleus muscle
Protocol: as §4

ACC = settings: muscle of insulin-resistant mice
Protocol: as §4
(§5) Membranes were probed with β-actin or AMPK or ACC antibodies for total proteins.

AMPK [6] = settings: muscle of insulin-resistant mice
Protocol: as §4, §5

mitochondrial complexes = settings: muscle of HFD mice; chronic apelin treatment
Protocol: as §4, §5

PGC1-α = settings: soleus muscle; HFD mice; chronic apelin treatment
Protocol: as §4
(§6) Total RNAs (1 μg) were isolated from muscle using RNA STAT (AMS Technology, Lutterworth, U.K.) and were reverse transcribed using random hexamers and Superscript II reverse transcriptase (Invitrogen, Paisley, U.K.). Real time PCR was performed as previously described (1). Analysis of the 18S ribosomal RNA was performed using the ribosomal RNA control TaqMan Assay Kit (Applied Biosystems) to normalize gene expression.

PGC1-β = settings: soleus muscle; HFD mice; chronic apelin treatment
Protocol: as §4, §6

[7] = test system: mitochondrial transcription factor A (TFAM); settings: soleus muscle; HFD mice; chronic apelin treatment
Protocol: as §4, §6

[8] = test system: nuclear respiratory factor 1 (NRF1); settings: soleus muscle; HFD mice; chronic apelin treatment
Protocol: as §4, §6

mtDNA = experiment: Mitochondrial DNA analysis in soleus muscle (COX1 to cyclophilin A); format: in vivo; settings: HFD mice
Protocol: Total DNA was extracted from soleus muscle using a commercial kit (DNeasy; QIAGEN). The content of mitochondrial (mt)DNA was calculated using real-time quantitative PCR by measuring the threshold cycle ratio of a mitochondrial encoded gene (COX1) and a nuclear-encoded gene (cyclophilin A) as previously described (15).

[9] = quadriceps muscles of moderate aged-mice, 28-days treatment
[10] = soleus muscle, HFD mice, chronic apelin treatment

**Q.** With `CSCC[C@H](NC(=O)[C@@H]1CCCN1C(=O)CNC(=O)[C@H](CCCCN)NC(=O)[C@H](Cc1cnc[nH]1)NC(=O)[C@H](CO)NC(=O)[C@H](CC(C)C)NC(=O)[C@H](CCCNC(=N)N)NC(=O)[C@@H]1CCCN1C(=O)[C@H](CCCNC(=N)N)NC(=O)[C@@H](N)CCC(N)=O)C(=O)N1CCC[C@H]1C(=O)N[C@@H](Cc1ccccc1)C(=O)O` [apelin, apelin-13] as the molecule, how does the “Myf5 marker quantification (mRNA), Mean” value (Myf5; EDL muscle) read?
**A.** The value was 1.200.

**Q.** And the “Myf5 marker quantification (mRNA), Mean” value (Myf5; Gas muscle)?
**A.** Its value is 5.340.

**Q.** What about the “Myf5 marker quantification (mRNA), Mean” value (Myf5; Quad muscle) of the same molecule?
**A.** The value was 5.820.

**Q.** What about the “Myf 5 expression, change in words (FIGS. 1A and B)” value (Myf5; [9]) of the same molecule?
**A.** The value was “increased”.

**Q.** What about the “MyoD marker quantification (mRNA), Mean” value (MyoD; EDL muscle) of the same molecule?
**A.** Its value is 142.520.

**Q.** What about the “MyoD marker quantification (mRNA), Mean” value (MyoD; Gas muscle) of the same molecule?
**A.** Its value is 222.300.

**Q.** What about the “MyoD marker quantification (mRNA), Mean” value (MyoD; Quad muscle) of the same molecule?
**A.** Its value is 328.160.

**Q.** What about the “MyoD expression, change in words (FIGS. 1A and B)” value (MyoD; [9]) of the same molecule?
**A.** Its value is “increased”.

**Q.** What about the “Myostatin marker quantification (mRNA), Mean” value (Myostatin; EDL muscle) of the same molecule?
**A.** Its value is 114.660.

**Q.** And the “Myostatin marker quantification (mRNA), Mean” value (Myostatin; Gas muscle)?
**A.** The value was 1034.000.

**Q.** What about the “Myostatin marker quantification (mRNA), Mean” value (Myostatin; Quad muscle) of the same molecule?
**A.** The value was 244.300.

**Q.** What about the “myostatin expression, change in words (FIGS. 1A and B)” value (Myostatin; [9]) of the same molecule?
**A.** The value was “decrease”.

**Q.** And the “myogenin marker quantification (mRNA), Mean” value (“myogenin marker quantification” below) (myogenin; EDL muscle)?
**A.** Its value is 14.280.

**Q.** And the “myogenin marker quantification” value (myogenin; Gas muscle)?
**A.** The value was 23.360.

**Q.** What about the “myogenin marker quantification” value (myogenin; Quad muscle) of the same molecule?
**A.** The value was 35.060.

**Q.** And the “Myogenin expression, change in words (FIGS. 1A and B)” value (myogenin; [9])?
**A.** Its value is “increased”.

**Q.** What about the “Plasma apelin concentrations, increase” value [1] of the same molecule?
**A.** The value was “over 2.5 fold”.

**Q.** What about the “Plasma apelin concentrations, increase” value ([2]; HFD mice, bolus of apelin 0.1 μmol/kg i.p., 10 min after injection) of the same molecule?
**A.** The value was > 2.4 fold.

**Q.** What about the “Plasma apelin concentrations, apelin-treated vs PBS-treated mice” value ([2]; at the end of the 28-day treatment) of the same molecule?
**A.** Its value is “not different”.

**Q.** And the level at 10 min ([2]; mouse, in vivo, ip, 0.1 umol/kg, HFD mice, bolus of apelin 0.1 μmol/kg i.p., 10 min after injection, n=5)?
**A.** The level at 10 min was 4.12 ± 0.96 ng/mL.

**Q.** And the “apelin-increased FAO in HFD AMPK-DN mice vs HFD WT (FIG. 6C)” value (AMPK [3])?
**A.** Its value is “completely blunted”.

**Q.** What about the “apelin-increased mitochondrial biogenesis in HFD AMPK-DN mice vs HFD WT (FIG. 6D)” value (AMPK [3]) of the same molecule?
**A.** Its value is “completely blunted”.

**Q.** What about the “overexpression of PGC1-α, TFAM, and NRF1 in HFD AMPK-DN mice (FIG. 6E)” value (AMPK [3]) of the same molecule?
**A.** Its value is “reduced”.

**Q.** What about the “malonyl-CoA concentrations (FIG. 6B)” value (Malonyl-CoA) of the same molecule?
**A.** Its value is “significant reduction”.

**Q.** And the citrate synthase activity (citrate synthase)?
**A.** Its citrate synthase activity is 2.91±0.07 μmol/min/mg proteins.

**Q.** What about the “alterations of mitochondria ultrastructure in IMF and SS mitochondria (FIG. 5E)” value [4] of the same molecule?
**A.** Its value is “Fewer adverse alterations”.

**Q.** And the “density of intramyofibrillar (IMF) mitochondria (FIG. 5E)” value [4]?
**A.** Its value is “significantly increased”.

**Q.** And the “succinate and adenylate-driven respiration (State 3)” value ([4]; permeabilized soleus fibers)?
**A.** Its value is “significantly higher”.

**Q.** And the “succinate-driven mitochondrial respiration (complex II) vs control (FIG. 5A)” value ([4]; permeabilized soleus fibers)?
**A.** Its value is “significantly higher”.

**Q.** What about the “glutamate/malate-driven mitochondrial respiration (complex I), apelin- vs PBS-treated” value ([4]; permeabilized soleus fibers, data not shown) of the same molecule?
**A.** The value was “No difference”.

**Q.** What about the “amount of IMTG and DAG in muscle vs PBS treatment (FIG. 4A)” value [5] of the same molecule?
**A.** Its value is “does not reduce”.

**Q.** What about the “insulin-stimulated glucose uptake vs PBS-treated mice (FIG. 7B)” value (soleus muscle; 100 nmol/L insulin, HFD mice) of the same molecule?
**A.** The value was “significantly increased”.

**Q.** What about the “rate of palmitate incorporation into TG (FIG. 4B)” value (soleus muscle; HFD mice, chronic apelin treatment 28 days) of the same molecule?
**A.** The value was “no effect”.

**Q.** And the “acylcarnitine levels, especially C16:1 and C18:1 species, vs HFD PBS-treated mice (FIG. 7A)” value (soleus muscle; soleus muscle homogenates)?
**A.** Its value is “reduced”.

**Q.** What about the “complete oxidation of [14C]palmitate to CO2 vs PBS treatment (FIG. 4C)” value (soleus muscle; [10]) of the same molecule?
**A.** Its value is “significantly increased”.

**Q.** What about the “incomplete oxidation of [14C]palmitate (FIG. 4C)” value (soleus muscle; [10]) of the same molecule?
**A.** The value was “not significantly increased”.

**Q.** What about the “ACC phosphorylation (FIG. 6A)” value (ACC) of the same molecule?
**A.** The value was “significantly increased”.

**Q.** And the “AMPK phosphorylation (FIG. 6A)” value (AMPK [6])?
**A.** Its value is “significantly increased”.

**Q.** What about the “Protein expression of complex II, III, and V (FIG. 5B)” value (mitochondrial complexes) of the same molecule?
**A.** Its value is “significantly increased”.

**Q.** What about the “Expression of PGC1-α (FIG. 5C)” value (PGC1-α) of the same molecule?
**A.** The value was “significantly increased”.

**Q.** And the “expression of PGC1-β (FIG. 5C)” value (PGC1-β)?
**A.** The value was “not modified”.

**Q.** And the “expression of TFAM” value [7]?
**A.** The value was “upregulated”.

**Q.** And the “expression of NRF1” value [8]?
**A.** Its value is “upregulated”.

**Q.** What about the “mtDNA-to-nuclear DNA ratio vs PBS-treated mice (FIG. 5D)” value (mtDNA) of the same molecule?
**A.** Its value is “significantly higher”.
